Results taken from patent US8048924B2, “Methods and compositions employing 4-aminophenylacetic acid compounds” (Biocon Limited, priority 2001, dated 2011).
Like-named read-outs stand apart in the source and are kept apart here.

Experiments:
DSS induced colitis = assay: Dextran sulfate sodium (DSS) colitis in the rat; format: in vivo, Sprague-Dawley rats; conditions: oral gavage bid
Procedure: The effectiveness of APAZA™ and sulfasalazine in ameliorating intestinal inflammation in a model of dextran sulfate sodium (DSS) induced colitis in Sprague-Dawley rats was determined. Thirty-six male Sprague-Dawley rats that were 7-8 weeks old and weighed 240-260 g were studied. […] After completion of the treatment period, rats were euthanized and the efficacy of the test drugs in inhibiting colitis was assessed by the following: • Disease Activity Index Scoring: • Body weight • Colon wet weight: body weight ratios • Colonic Myeloperoxidase (MPO) activity • Histopathological changes of the colon

[1] = Single oral dose pharmacokinetics of APAZA in dogs; format: in vivo, Beagle dogs; conditions: for AUC(0-t) / Cmax / Tmax: Beagle, dog, plasma, single oral dose 1000 mg/kg; for AUC(0-t): read-out: area under the plasma concentration-time curve (AUC0-t); for Cmax: read-out: mean maximum plasma concentration (Cmax); for Tmax: read-out: time to maximum plasma concentration (tmax)
DNBS colitis = assay: Study AA-PH-003: oral and rectal APAZA and sulfasalazine in DNBS colitis; format: in vivo, male Lewis rats; parameters: Average Diarrhea Score Day 3: scale not given here; conditions: for Colonic Inflammation Scores: scale 0-2
Procedure: Study AA-PH-003 was designed to evaluate the anti-inflammatory efficacy of oral and rectal doses of APAZATM and sulfasalazine in the DNBS colitis model in rats. […] Thirty-five adult male Lewis rats (body weight 200-250 g) were studied. […] Animal body weights and incidence of diarrhea were recorded daily. […] Animals in the DNBS groups and the parallel deionized water group were sacrificed on day 5. Laparotomies and colectomies were performed and animals were scored for the presence and severity of intestinal adhesions, strictures, inflammation, and ulceration. Colon: body weight ratios were determined and colon histopathology was performed.

[2] = orally + 30 mg DNBS, APAZA 200 mg/kg, sulfasalazine 265.6 mg/kg
[3] = rectally + 30 mg DNBS, APAZA 200 mg/kg, sulfasalazine 265.6 mg/kg

O=C(O)Cc1ccc(/N=N/c2ccc(O)c(C(=O)O)c2)cc1 [APAZA™, 5-(4-carboxymethyl-phenylazo)-2-hydroxy-benzoic acid]
colon wet weight: body weight ratio, DSS versus DW (DSS induced colitis; APAZA 100 mg/kg, sulfasalazine 133 mg/kg): no statistically significant difference
Disease Activity Index (DAI) score (DSS induced colitis; rats drinking 5% DSS, APAZA 100 mg/kg, sulfasalazine 133 mg/kg): 0-1
colonic MPO activity (DSS induced colitis; rats receiving DSS): similar
histological changes of the colon (DSS induced colitis; rats receiving DSS): largely protected
AUC(0-t) ([1]; female dogs): 40800 ng·h/mL
Cmax ([1]; female dogs): 2640 ng/mL
Tmax ([1]; female dogs): 24 h
AUC(0-t) ([1]; male dogs): 95400 ng·h/mL
Cmax ([1]; male dogs): 9780 ng/mL
Tmax ([1]; male dogs): 15 h
plasma levels versus dose ([1]; single oral dose, 100 to 1000 mg/kg): increased in a dose-related manner
severity of mucosal ulcers (DNBS colitis; compared to tissues from placebo and sulfasalazine treated animals): less severe
reduction relative to control in net colon: body weight (% BW) ratio (DNBS colitis; oral groups): 23.8%
Average Diarrhea Score Day 3 (DNBS colitis; [2]): 2
Colon Histopathology (# severe lesions) (DNBS colitis; [2]): 2
Length of Colonic Inflammation (cm) (DNBS colitis; [2]): 2.5 cm
Mean Body Weight (DNBS colitis; [2]): 213.8 g
Mean Colon Length (cm) (DNBS colitis; [2]): 12.3 cm
Net Colon: Body Weight Ratio (DNBS colitis; [2]): 0.2309
Colonic Inflammation Scores (DNBS colitis; [2]): 1.4
Average Diarrhea Score Day 3 (DNBS colitis; [3]): 2
Length of Colonic Inflammation (cm) (DNBS colitis; [3]): 1.6 cm
Mean Body Weight (DNBS colitis; [3]): 218.6 g
Mean Colon Length (cm) (DNBS colitis; [3]): 12.4 cm
Net Colon: Body Weight Ratio (DNBS colitis; [3]): 0.1983
Colonic Inflammation Scores (DNBS colitis; [3]): 1.3
